Results: paper PMC12408683 (Archives of Toxicology, 2025)

Columns and labels:
[1] = system: primary human hepatocytes (PHH); test: Western blot of γH2AX and p53 in primary human hepatocytes; details: 24 h; for γH2AX induction vs. control: selected concentrations
Experimental: (§1) Both cell lines were cultivated in DMEM high glucose without pyruvate (Gibco, Thermo Fisher Scientific, Waltham MA, USA) supplemented with 10% foetal calf serum (FCS, Pan-Biotech, Aidenbach, Germany) and 1% penicillin/streptomycin (Gibco, Thermo Fisher Scientific, Waltham MA, USA). […] Cryopreserved PHH (BioIVT, Brussels, Belgium) pooled from 10 donors (5 × females, 5 × males) were handled according to the protocol of the manufacturer. […] Cells were then diluted, plated for the respective assays in collagen-coated plates, and allowed to adhere for 3 h.
To this end, 5 × 10^5 cells were seeded in 3.5-cm dishes to adhere overnight. […] Proteins were separated by SDS-PAGE followed by the transfer onto a nitrocellulose membrane using the wet blot method. The successful transfer was confirmed by Ponceau S staining of the membrane before blocking with 5% non-fat dry milk in Tris-buffered saline with Tween-20 (MP-TBS-T). Subsequently, the membrane was incubated with the respective primary antibodies overnight at 4 °C. The membranes were washed three times for 5 min with TBS-T before incubating with the respective secondary antibody coupled with horseradish peroxidase. The detection was carried out using the Western Lightning Plus-ECL reagent (Perkin Elmer, Waltham MA, USA) with the c300 chemiluminescence imager (Azure Biosystems, Dublin CA, USA). The used primary and secondary antibodies are detailed in supplementary Table S3.

HepG2 cells [2] = system: HepG2 cells; set-up: method as in Yang et al. 2022; details: MTT assay; ref Yang et al. 2022; cited from earlier work
HepG2 cells [3] = system: HepG2 cells
Experimental: (§2) The CBMN assay was performed according to the OECD test guideline #487. Therefore, 2 × 10^5 cells were seeded in 3.5 cm dishes and allowed to adhere for 24 h. […] After the 24 h treatment, the medium was discarded and the cells were incubated with fresh medium, containing 6 µg/mL cytochalasin B as cytokinesis inhibitor. The cells were then left to grow for 72 h, allowing for 1.5–2 × cell cycles. Subsequently, the cells were rinsed with PBS and fixed with ice-cold methanol for 10 min at –20 °C. Cells were washed and embedded with Vectashield® containing DAPI (Vector Labs, Burlingame, CA, USA). The samples were analysed with a Zeiss Axio Observer 7 microscope equipped with an Axiocam 305 mono and a 63 × oil immersion objective (plan-apochromat 63x/1.40 DIC M27) using ZEN Software 3.2. 500 binucleated cells per sample were analysed for micronuclei formation.
(§3) As benchmark response (BMR) for all concentration–response curves (adducts, micronuclei), a 2.0-fold increase vs. solvent control was used (BMC100, critical effect size = 1). The determined BMC100 and the corresponding upper and lower boundary (BMCU and BMCL, respectively) of the 90% confidence interval (CI) were used for potency comparison.

[4] = system: primary human hepatocytes (PHH); test: Resazurin reduction assay (cytotoxicity) in PHH; details: 24 h
Experimental: as §1
PHH were seeded in 96-well plates precoated with collagen at a cell density of 7 × 10^4/well, left to adhere for 3 h, and treated as described above for 24 h. After treatment, medium was discarded and replaced by resazurin reaction solution containing 44 µM resazurin in NaCl/Pi buffer (1.1 mM KH2PO4, 154 mM NaCl, and 3.7 mM Na2HPO4∙H2O) diluted 1:10 in medium without FCS and P/S. The cells were then incubated for 1.5 h and fluorescence was measured using a Spark® microplate reader (Tecan, Männedorf, Switzerland) with an excitation at 544 nm and emission at 590 nm. The cell viability was calculated relative to the negative control (set to 100%).

HepaRG cells and PRH = system: HepaRG cells and PRH; set-up: method as in Yang et al. 2020; details: 50 µM ES or 1′OH-ES; ref Yang et al. 2020; cited from earlier work
HepaRG cells [5] = system: HepaRG cells; set-up: method as in Le Hegarat et al. 2014; details: up to 2 mM ES for 24 h; ref Le Hegarat et al. 2014; cited from earlier work
HepG2-CYP1A2 cells [6] = system: HepG2-CYP1A2 cells
Experimental: as §2, §3

HepG2-CYP1A2 cells [7] = test: Alkaline comet assay (DNA strand breaks) in HepG2-CYP1A2 cells; details: 24 h
Experimental: As a positive control, tBuOOH (20 min, 200 µM) was used. Subsequently, the alkaline comet assay was performed to quantify DNA strand breaks as previously described (Haas et al. [2023b]). Per sample, at least 50 comets were counted with Comet IV software (Instem, Staffordshire, UK) using a Zeiss Axio Observer 7 microscope equipped with an Axiocam 305 mono and ZEN 3.2 software (Carl Zeiss, Jena, Germany).

mice = system: mice; set-up: method as in Suzuki et al. 2012b; details: up to 300 mg/kg bw and day over 13 weeks; ref Suzuki et al. 2012b; cited from earlier work
HepaRG cells [8] = system: HepaRG cells; set-up: method as in Le Hegarat et al. 2014; details: ref Le Hegarat et al. 2014; cited from earlier work
female gpt delta mice = system: female gpt delta mice; set-up: method as in Suzuki et al. 2012b; details: ref Suzuki et al. 2012b; cited from earlier work
[9] = endpoint MN (CBMN), BMR 2.0-fold increase
[10] = endpoint MN (CBMN), BMR 2.0-fold increase, 90% CI
[11] = range stated for both ES and 1′OH-ES

## C=CC(O)c1ccc(OC)cc1 (centres unmarked) [1′OH-ES, 1′-hydroxyestragole]
[1]
  p53 levels: slightly declined
  γH2AX induction vs. control: threefold
HepG2 cells [2]
  EC50: 102 µM
HepG2 cells [3]; 50 µM 1′OH-ES (top concentration)
  MN induction vs solvent control (CBMN): roughly a twofold induction
HepG2 cells [3]; 24 h + 72 h recovery
  concentration at which the increase in MN starts (CBMN): 5 µM
HepG2 cells [3]; [9]
  BMC100: 32.0 µM
HepG2 cells [3]; [10]
  BMCL: 21.0 µM
  BMCU: 106 µM
HepG2 cells [3]; [11]
  BMC for clastogenic response vs BMC for DNA adduct formation: 12–17 fold
[4]; read-out: EC50 (cell viability)
  EC50: 107 µM
HepaRG cells and PRH
  E3′-N^2-dG levels vs ES: 33–40 fold

## C=CCc1ccc(OC)cc1 [ES, estragole]
[1]
  γH2AX induction vs. control: 1.4 fold
HepaRG cells [5]
  DNA strand breaks (comet assay) outcome: negative outcome
HepG2-CYP1A2 cells [6]; 2000 µM ES (top concentration)
  MN induction vs solvent control (CBMN): roughly a twofold induction
HepG2-CYP1A2 cells [6]; 24 h + 72 h recovery
  concentration at which the increase in MN starts (CBMN): 500 µM
HepG2-CYP1A2 cells [6]; CBMN and MN flow assay
  concentrations at which clastogenicity was observed: ≥ 1000 µM
HepG2-CYP1A2 cells [6]; [9]
  BMC100: 1116 µM
HepG2-CYP1A2 cells [6]; [10]
  BMCL: 555 µM
  BMCU: 1755 µM
HepG2-CYP1A2 cells [6]; [11]
  BMC for clastogenic response vs BMC for DNA adduct formation: 12–17 fold
[4]; test concentrations up to 5 mM
  viability: did not affect viability
HepG2-CYP1A2 cells [7]; 2 mM ES, vs solvent control
  DNA strand breaks (alkaline comet assay): small but not statistically significant increase
HepG2-CYP1A2 cells [7]; up to 2 mM ES
  DNA strand breaks (alkaline comet assay): did not elicit an increase of DNA strand break levels
mice
  clastogenicity: clastogenicity was not detected
HepaRG cells [8]
  lowest effect concentration for MN formation: 1 mM
Female gpt delta mice
  dose with significant increase in mutation frequency: 75 mg/kg bw
